{
  "source": "patent US8357413B2",
  "about": "“Process for the disinfection and/or preservation of harvested plant material” (Solvay (Societe Anonyme), priority 2003, dated 2013)",
  "system": "aerobic micro-organism activity",
  "experiment": "Example 4: aerobic stability of forage (temperature rise in insulated boxes)",
  "procedure": "The treatments shown in examples 1 and 2 were also evaluated for their aerobic stability i.e. under conditions representing opening of the clamp to use the forage as feed thus allowing air to enter the clamp. In this case comparisons were made with untreated forage as in examples 1 and 2 and also with forage treated with a typical acid product, formic acid (85% w/w) applied at 2.5 liters per tonne of grass. 750 g of the forages were stored in insulated boxes placed in a controlled environment at 20-22° C. A temperature probe was inserted into each box linked to a data logger to monitor temperature changes hourly over a 6 day period.",
  "data": [
    {"smiles": "O=CO", "note": "[Formic Acid, formic acid]", "values": [
      {"measurement": "Temperature Day 0", "setting": "750 g forage in insulated boxes at 20-22° C., Day 0", "value": 17.8, "unit": "°C"},
      {"measurement": "Temperature Day 6", "setting": "750 g forage in insulated boxes at 20-22° C., Day 6", "value": 20.5, "unit": "°C"},
      {"measurement": "Temperature increase", "setting": "Day 0 to Day 6", "value": "+2.7 °C"}
    ]}
  ]
}
